Assay results reported in US12324858B2, “Pharmaceutical formulation and system and method for delivery” (Rilento Pharma, LLC, priority 2018, dated 2025).
Entries after “also recorded” stand apart in the source; their conditions may differ. Structures can show the parent of a compound that is named as a salt.

Experiments:
[1] = mineral oil estimated, cited from earlier work; for HAN δDispersion / HAN δH-bonding / HAN δPolar: Hansen; for HANtotal: Hansen Solubility Parameter, total
[2] = Suspension test of candidate liquids with GLBG (gelation); type: physicochemical; details: for Gelation of GLBG suspended in the liquid: 2/1 w/w liquid to GLBG, monitoring window 0-24 and 0-48 hours; for Suitable for use in a hydrophilic device / Suitable for use in a hydrophobic device: suspension test with GLBG
Experimental: The suspensions are then qualitatively monitored as a function of time for physical changes, such as the onset of gelation, by using any one of a variety of possible qualitative or quantitative techniques. Note that other liquid to gelatin ratios can also be employed, including ratios that are intended for use in various end-applications. […] Monitoring times of suspensions can include various time points after the suspensions are mixed, including for example, 5 minutes after mixing, 0.5 hours after mixing, 1 hour after mixing, 5 hours after mixing, 24 hours after mixing, 48 hours after mixing, 1 week after mixing, 1 month after mixing, 6 months after mixing, 1 year after mixing, and even 2 to 5 years after mixing. […] Of course, quantitative measurements can also be employed if so desired (e.g., Brookfield viscosity, parallel plate dynamic mechanical techniques, etc.). […] Conversely, if there are signs of gelation, including for example, any one or more of the following responses before the end of the monitoring time window: 1) development of elastic recovery; 2) visualization of permanent coalescence of gelatin particulates; or 3) solid network formation with loss of pourability, then these liquids are by definition excluded as candidates for use in more hydrophobic formulations, and are instead considered as candidate liquids for use in preparing more hydrophilic formulations. […] A spatula was used to stir the ingredients to create a suspension. The suspensions were then allowed to set under static conditions and were qualitatively monitored as a function of time. Results at t=5 minutes after mixing, t=0.5 hours after mixing, t=5 hours after mixing, t=24 hours after mixing, and at t=48 hours after mixing were reported. The tests were conducted at 20 degrees C. with one exception, one of the tests was conducted at 27 degrees C. to ensure that the carrier was above its melt point and in its liquid state.

[3] = Background UV spectra of individual ingredients in pH-2 water; type: physicochemical
Excerpt: Using the same instrument parameters and cuvettes, spectra were also acquired for each individual ingredient in the mixtures for the purpose of determining background contributions to the overall absorbance spectra that were obtained for the fully formulated mixtures. […] In this way, the background experiments were representative of the highest degree of spectral background contribution that might be potentially observed for the fully formulated devices if the devices were to completely disintegrate and dissolve during the water-soak experiment.
BUP-HCl is known to be a strong chromophore with a documented UV absorption maximum at 262 nm (Corciova, A., Eur. Chem. Bull., 2012, 2(8), 554-557).

Row | Compound | HAN δDispersion [1] | HAN δH-bonding [1] | HAN δPolar [1] | Gelation of GLBG suspended in the liquid [2] | Suitable for use in a hydrophilic device [2] | Suitable for use in a hydrophobic device [2] | also measured
1 | water | 15.5 MPa^1/2 | 42.4 MPa^1/2 | 16.0 MPa^1/2 | lead to gelation of gelatin; also recorded: gelation and elastic network formation was observed to begin almost immediately | Yes | No | –
2 | OCC(O)CO [Glycerol] | 17.4 MPa^1/2 | 29.3 MPa^1/2 | 12.1 MPa^1/2 | – | – | – | HANtotal [1]: 36.2 MPa^1/2; HSP ([1]; Hildebrand Solubility Parameter): 33.8 MPa^1/2
3 | OCC(O)CO [Glycerin] | – | – | – | lead to gelation of gelatin | Yes | No | Gelation of GLBG suspended in the liquid ([2]; listed as glycerin): work time window prior to the onset of gelation was observed to be significantly longer
4 | CCCCN1CCCCC1C(=O)Nc1c(C)cccc1C (stereo not shown) [BUP-HCl, bupivacaine] | – | – | – | – | – | – | Solubility in pH-2 water ([3]; mildly acidic conditions, pH-2 water (dilute HCl)): completely soluble under these conditions
5 | CCCCCCCCCCCCCCCC(=O)OC(C)C [isopropyl palmitate] | – | – | – | no signs of gelation | No | Yes | –
6 | CCCCCCCC(=O)OCC(COC(=O)CCCCCCC)OC(=O)CCCCCCC [caprylic triglyceride] | 16.2 MPa^1/2 | 4 MPa^1/2 | 3.4 MPa^1/2 | no signs of gelation | No | Yes | HANtotal [1]: 17.0 MPa^1/2
7 | CCCCN1CCCCC1C(=O)Nc1c(C)cccc1C (stereo not shown) [BUP free base, bupivacaine] | – | – | – | – | – | – | Relative Absorbance at 270 nm at t = 24 hrs. ([3]; individual ingredient in pH-2 water, background UV spectrum): > or = 4 (i.e.,; Solubility in water ([3]; water): low solubility in water
